# Experiment: Stability studies of nitisinone obtained through the process of the invention (storage; appearance, KF water, HPLC assay, impurities by HPLC and HPLC/MS)
# Type: physicochemical
# Source text: When referring to purity determined by HPLC techniques, said chromatograms are gathered at a wavelength of 235 nm. […] The presence of impurity-4 was checked by reverse HPLC/MS using the method described in the table underneath. [table] [table]
smiles,measurement,setting,value
"O=C1CCCC(=O)C1C(=O)c1ccc(C(F)(F)F)cc1[N+](=O)[O-] [nitisinone, 2-(2-nitro-4-trifluoromethylbenzoyl)-1,3-cyclohexanedione]",stability (in words),"even in accelerated conditions, period of at least six months",extremely stable
same,impurity-4 content (in words),"independently from the storage conditions, reverse HPLC/MS",below the limit of quantification

# Reference: patent US9783485B1, “Crystalline inhibitor of 4-hydroxyphenylpyruvate dioxygenase, and a process of synthesis and crystallization thereof” (Dipharma S.A., priority 2016, dated 2017)
